Laboratory results from PubChem BioAssay AID504745 (National Center for Advancing Translational Sciences (NCATS), 2011).

System: Caco-2 bidirectional permeability, efflux ratio, LC-MS/MS
Assay: Inhibitors of N370S glucocerebrosidase as a Potential Chaperone Treatment of Gaucher Disease: Efflux Ratio Profiling
Settings: active compounds read low
Text: Glucocerebrosidase (GC) catalyzes the hydrolysis of beta-glucocerebroside to glucose and ceramide in lysosomes. Mutations in the glucocerebrosidase gene result in Gaucher disease, an autosomal recessive lysosomal storage disorder. Many of the mutations encountered in patients with Gaucher disease are missense alterations that may cause misfolding, decreased stability and/or mistrafficking of this lysosomal protein. […] These inhibitors include iminosugar analogs and three non-iminosugar inhibitors identified from a previous HTS of 62,000 compounds with the wild type recombinant enzyme. After further testing a probe has been identified and was characterized though AMDE tests. This bioassays provides profiling data on Caco-2 cell permeability of leads compounds developed for the HPGD project. This in vitro model is often predictive of in vivo efflux of the compound by measuring the ratio of transport in and out the plasma membrane of the Caco2-cell line. NIH Chemical Genomics Center [NCGC] NIH Molecular Libraries Probe Production Centers Network [MLPCN] MLPCN Grant: MH086442-01 Assay Submitter (PI): Wei Zheng
1. […] The T0, LY and T90, LY plates are read by FlexStation 3 at excitation of 485 nm and emission of 535 nm to determine LY permeability. […]

An efflux ratio of 9.9 was found for `S=C(NCCCc1cnc[nH]1)NCCCN(Cc1ccc(Cl)c(Cl)c1)c1ccc(Br)cn1` in this work.
